The test system of one test is CSPα with SNAP-25. Briefly: Interaction of CSPα with SNAP-25 in ANCL iNs (SNAP-25 IP, co-IP of CSPα). It counts as cell-based, human. Conditions: 72 h, compared to control, FIG. 7C. As for the experimental part: (§1) ANCL patient-derived fibroblasts were treated with 200 μM of L1 or Dfx, or vehicle (0.1% DMSO=Control) for 72 h, before measuring the UV-Vis absorbance spectra of immunoprecipitated CSPα eluted by trypsinization (solid lines). Spectra were re-read after 10 min of 0.1 N HCl treatment (dashed lines). The experiments shown in FIGS. 7B-7I, were conducted using ANCL fibroblasts converted to iNs using BAM+ND1 technique. […] Quantitative immunoblotting was used to measure levels of oligomerized and fully palmitoylated CSPα as well as total SNAP-25. Oligo=oligomers; Palm=palmitoylated. […] The interaction of CSPα with SNAP-25 in ANCL iNs was measured by immunoprecipitating SNAP-25 followed by quantitative immunoblotting of co-immunoprecipitated CSPα (normalized to SNAP-25 IP). Note that mainly CSPα monomers and not oligomers were detected bound to SNAP-25. Control=control sham IP without IgG. […] Turnover of SNAP-25 was determined by cycloheximide chase, while maintaining the iron-chelators or vehicle in the medium. […] In the experiments shown in FIGS. 7E-7G, ANCL iNs treated with L1, Dfx, or vehicle for 56 d and analyzed. […] The levels of lipofuscin were determined by ELISA. In the experiments shown in FIGS. 7H-7I 56 day old untreated ANCL iNs were treated with L1, Dfx, or vehicle, and analyzed. […]

A further test deals with SNAP-25. Nature of the test: Total SNAP-25 levels in ANCL iNs (quantitative immunoblotting). It counts as cell-based, human. Conditions: 72 h, compared to vehicle only control, FIG. 7B. As for the experimental part: as §1

Molecules are shown by their SMILES.

Turning to `CC(=O)N(O)CCCCCNC(=O)CCC(=O)N(O)CCCCCNC(=O)CCC(=O)N(O)CCCCCN` [Dfx, N′-[5-(Acetyl-hydroxy-amino)pentyl]-N-[5-[3-(5-aminopentyl-hydroxy-carbamoyl)propanoylamino]pentyl]-N-hydroxy-butane diamide], in the test with CSPα with SNAP-25, the “interaction of CSPα with SNAP-25” value is “improved”. Besides, in the test on SNAP-25, the SNAP-25 levels result is on record as “augmented”.

With `Cc1c(O)c(=O)ccn1C` [L1, 3-hydroxy-1,2-dimethyl-4(1H)-pyridone], in the test on CSPα with SNAP-25, the “interaction of CSPα with SNAP-25” value is on record as “improved”. For the same compound, in the test with SNAP-25, the SNAP-25 levels result is given as “augmented”.
